Results as given in ChEMBL document CHEMBL3244027, “Syntheses, analgetic activity, and physical dependence capacity of 5-phenyl-6,7-benzomorphan derivatives” (J Med Chem, 1979).
Active and inactive are the calls of the source. No cut-off for these calls is given here.

What was measured:
Mus musculus [1] = assay: Analgetic activity against CF-1 mouse assessed as increase in reaction time at 1.2 mg/kg, sc by heat stimulus induced tail flick response assay; format: functional, organism-based; set-up: dose 1.2 mg/kg
Mus musculus [2] = assay: Analgetic activity against CF-1 mouse assessed as increase in reaction time at 40 mg/kg, po by heat stimulus induced tail flick response assay; format: functional, organism-based; set-up: dose 40 mg/kg
Mus musculus [3] = assay: Analgetic activity against CF-1 mouse assessed as increase in reaction time at 20 mg/kg, sc by heat stimulus induced tail flick response assay; format: functional, organism-based; set-up: dose 20 mg/kg
Mus musculus [4] = assay: Analgetic activity against CF-1 mouse assessed as increase in reaction time at 5 mg/kg, sc by heat stimulus induced tail flick response assay; format: functional, organism-based; set-up: dose 5 mg/kg
Mus musculus [5] = assay: Analgetic activity against CF-1 mouse assessed as increase in reaction time at 2 mg/kg, sc by heat stimulus induced tail flick response assay; format: functional, organism-based; set-up: dose 2 mg/kg
Rhesus monkey = assay: Analgetic activity in naloxone challenged monkey assessed as frequency pretreated for 2 day by mouse jumping test; format: functional, organism-based; settings: Macaca mulatta
Mus musculus [6] = assay: Analgetic activity in sc dosed CF1S mouse assessed as writhing by phenylquinone writhing test; format: functional; settings: Mus musculus, CF1S, sc; read-out: ED50
Mus musculus [7] = assay: Analgetic activity against CF-1 mouse assessed as increase in reaction time at 100 mg/kg, po by heat stimulus induced tail flick response assay; format: functional, organism-based; set-up: dose 100 mg/kg
Mus musculus [8] = assay: Analgetic activity against CF-1 mouse assessed as increase in reaction time at 10 mg/kg, sc by heat stimulus induced tail flick response assay; format: functional, organism-based; set-up: dose 10 mg/kg
Mus musculus [9] = assay: Analgetic activity against CF-1 mouse assessed as increase in reaction time at 20 mg/kg, po by heat stimulus induced tail flick response assay; format: functional, organism-based; set-up: dose 20 mg/kg
Mus musculus [10] = assay: Toxicity in sc dosed CF1S mouse; format: organism-based; settings: in vivo
Mus musculus [11] = assay: Analgetic activity against CF-1 mouse assessed as increase in reaction time at 40 mg/kg, sc by heat stimulus induced tail flick response assay; format: functional, organism-based; set-up: dose 40 mg/kg
Mus musculus [12] = assay: Analgetic activity against CF-1 mouse assessed as increase in reaction time at 80 mg/kg, po by heat stimulus induced tail flick response assay; format: functional, organism-based; set-up: dose 80 mg/kg
Mus musculus [13] = organism: Mus musculus; assay: Analgetic activity in nalorphine challenged mouse assessed as frequency pretreated for 2 day by mouse jumping test; format: functional, organism-based
Mus musculus [14] = assay: Analgetic activity against CF-1 mouse assessed as increase in reaction time at 140 mg/kg, sc by heat stimulus induced tail flick response assay; format: functional, organism-based; set-up: dose 140 mg/kg
Mus musculus [15] = assay: Analgetic activity against CF-1 mouse assessed as increase in reaction time at 2.5 mg/kg, sc by heat stimulus induced tail flick response assay; format: functional, organism-based; set-up: dose 2.5 mg/kg
Mus musculus [16] = assay: Analgetic activity against CF-1 mouse assessed as increase in reaction time at 160 mg/kg, sc by heat stimulus induced tail flick response assay; format: functional, organism-based; set-up: dose 160 mg/kg
Mus musculus [17] = assay: Analgetic activity against CF-1 mouse assessed as increase in reaction time at 50 mg/kg, sc by heat stimulus induced tail flick response assay; format: functional, organism-based; set-up: dose 50 mg/kg
Mus musculus [18] = assay: Analgetic activity against CF-1 mouse assessed as increase in reaction time at 30 mg/kg, po by heat stimulus induced tail flick response assay; format: functional, organism-based; set-up: dose 30 mg/kg
Mus musculus [19] = assay: Analgetic activity against CF-1 mouse assessed as increase in reaction time at 4 mg/kg, sc by heat stimulus induced tail flick response assay; format: functional, organism-based; set-up: dose 4 mg/kg
Mus musculus [20] = assay: Analgetic activity against CF-1 mouse assessed as increase in reaction time at 10 mg/kg, po by heat stimulus induced tail flick response assay; format: functional, organism-based; set-up: dose 10 mg/kg
Mus musculus [21] = assay: Analgetic activity against CF-1 mouse assessed as increase in reaction time at 320 mg/kg, po by heat stimulus induced tail flick response assay; format: functional, organism-based; set-up: dose 320 mg/kg
Mus musculus [22] = assay: Analgetic activity against CF-1 mouse assessed as increase in reaction time at 30 mg/kg, sc by heat stimulus induced tail flick response assay; format: functional, organism-based; set-up: dose 30 mg/kg
Mus musculus [23] = assay: Analgetic activity against CF-1 mouse assessed as increase in reaction time at 100 mg/kg, sc by heat stimulus induced tail flick response assay; format: functional, organism-based; set-up: dose 100 mg/kg

How did the Activity (Mus musculus [1]) turn out when `CC1C2Cc3ccc(OC(=O)c4ccc(Cl)cc4)cc3C1(c1ccccc1)CCN2C` (stereo unspecified) was run?
Its Activity is “Active”.

`CC1C2Cc3ccc(O)cc3C1(c1ccccc1)CCN2C` (stereo unspecified) was tested. Which Activity (Mus musculus [2]) did it give?
Its Activity is “Active”.

What about the Activity (Mus musculus [3]) of the same compound?
Its Activity is “Active”.

Which results are given for `CCCCCN1CCC2(c3ccccc3)c3cc(OC(C)=O)ccc3CC1C2C` (stereo unspecified)?
Activity (Mus musculus [2]): Active; Activity (Mus musculus [4]): Active

With `CC1C2Cc3ccc(OC(=O)c4cccc(Cl)c4)cc3C1(c1ccccc1)CCN2C` (stereo unspecified) as the compound, how does the Activity (Mus musculus [1]) read?
Its Activity is “Active”.

With `C[C@@H]1C2Cc3ccc(O)cc3C1(c1ccccc1)CCN2C` (stereo partly specified) as the compound, how does the Activity (Mus musculus [5]) read?
The Activity was “Active”.

And the Activity (Rhesus monkey)?
The Activity was “Active”.

For `CC(=O)Oc1ccc2c(c1)C1(c3ccc(Cl)cc3)CCN(C#N)C(C2)C1` (racemic), which ED50 (Mus musculus [6]) is on record?
Its ED50 is > 100 mg/kg.

And the Activity (Mus musculus [7])?
Its Activity is “inactive”.

With `CC1C2Cc3ccc(O)cc3C1(c1ccc(Cl)cc1)CCN2C` (racemic) as the compound, how does the Activity (Mus musculus [8]) read?
Its Activity is “Active”.

What about the Activity (Mus musculus [9]) of the same compound?
Its Activity is “Active”.

With `Oc1ccc2c(c1)C1(c3ccccc3)CCN(CC3CC3)C(C2)C1` (stereo unspecified) as the compound, how does the Activity (Mus musculus [10]) read?
Its Activity is “Toxic”.

Which results are given for `CCOC(=O)CNC(=O)Oc1ccc2c(c1)C1(c3ccccc3)CCN(C)C(C2)[C@H]1C` (stereo partly specified)?
Activity (Mus musculus [11]): Active; Activity (Mus musculus [12]): Active

`CN1CCC2(c3ccccc3)CC1Cc1ccccc12` (stereo in doubt; 36) was tested. Which Activity (Mus musculus [3]) did it give?
Its Activity is “Active”.

What about the Activity (Mus musculus [13]) of the same compound?
The Activity was “inactive”.

Which Activity (Mus musculus [14]) does the source give for `CCN1CCC2(c3ccccc3)c3cc(O)ccc3CC1C2C` (stereo unspecified) here?
The Activity was “Active”.

With `COCOc1ccc2c(c1)C1(c3ccccc3)CCN(C)C(C2)C1C` (stereo unspecified) as the compound, how does the Activity (Mus musculus [9]) read?
Its Activity is “Active”.

And the Activity (Mus musculus [4])?
The Activity was “Active”.

`CCCCCN1CCC2(c3ccccc3)c3cc(O)ccc3CC1C2C` (stereo unspecified) was tested. Which Activity (Mus musculus [15]) did it give?
Its Activity is “Active”.

And the Activity (Mus musculus [16])?
The Activity was “Active”.

How did the Activity (Mus musculus [17]) turn out when `CN(C)C(=O)CCN1CCC2(c3ccccc3)CC1Cc1ccc(O)cc12` (racemic) was run?
Its Activity is “inactive”.

What does the source list for `CC1C2Cc3ccc(OC(=O)c4ccccc4F)cc3C1(c1ccccc1)CCN2C` (stereo unspecified)?
ED50 (Mus musculus [6]): 0.5 mg/kg; Activity (Mus musculus [13]): Active

How did the ED50 (Mus musculus [6]) turn out when `CC(=O)Oc1ccc2c(c1)C1(c3ccccc3)CCN(C(C)=O)C(C2)C1` (racemic) was run?
The ED50 was > 100 mg/kg.

And the Activity (Mus musculus [18])?
Its Activity is “inactive”.

With `CC(=O)Oc1ccc2c(c1)C1(c3ccccc3)CCN(C)C(C2)C1C` (stereo unspecified) as the compound, how does the Activity (Mus musculus [19]) read?
Its Activity is “Active”.

What about the Activity (Mus musculus [20]) of the same compound?
The Activity was “Active”.

What does the source list for `CC1C2Cc3ccc(O)cc3C1(c1ccccc1)CCN2CCC(C#N)(c1ccccc1)c1ccccc1` (stereo in doubt; 189)?
Activity (Mus musculus [21]): inactive; Activity (Mus musculus [13]): inactive

How did the Activity (Mus musculus [9]) turn out when `CCCC(=O)Oc1ccc2c(c1)C1(c3ccccc3)CCN(C)C(C2)C1C` (stereo unspecified) was run?
The Activity was “Active”.

And the Activity (Mus musculus [20])?
The Activity was “Active”.

Which results are given for `CCN1CCC2(c3ccccc3)CC1Cc1ccc(O)cc12` (racemic)?
ED50 (Mus musculus [6]): > 30 mg/kg; Activity (Mus musculus [22]): inactive

`CC1C2Cc3ccc(O)cc3C1(c1ccccc1)CCN2C` (racemic) was tested. Which Activity (Mus musculus [4]) did it give?
Its Activity is “Active”.

What about the Activity (Mus musculus [20]) of the same compound?
Its Activity is “Active”.

For `CCCCCN1CCC2(c3ccccc3)c3cc(O)ccc3CC1C2C` (racemic), which Activity (Mus musculus [4]) is on record?
The Activity was “Active”.

`COc1ccc2c(c1)C1(c3ccccc3)CCN(C)C(C2)C1` (racemic) was tested. Which Activity (Mus musculus [23]) did it give?
Its Activity is “inactive”.

How did the Activity (Mus musculus [2]) turn out when `CN1CCC2(c3ccccc3)CC1Cc1ccccc12` (racemic) was run?
Its Activity is “Active”.

And the Activity (Mus musculus [3])?
Its Activity is “Active”.
